In US7857804B2, “Use of Bcl inhibitors for the prevention of fibroproliferative reclosure of dilated blood vessels and other iatrogenic fibroproliferative disorders” (priority 2006, dated 2010):

Key:
[1] = test system: cell line R1 (human cell line derived from carotid artery atherosclerotic lesion); experiment: MTT cell survival after fas ligation (CH11), cell line R1; format: cell-based
Method: (§1) Cells for study were derived from human carotid artery atherosclerotic lesions, by published methods. Additionally, cell lines were subcloned and tested for sensitivity to fas ligation. In the present studies, clonal lines with known resistance to fas ligation were used.
(§2) Induction of apoptosis was achieved by reduction of serum concentration from 10% to 1% FBS for 24 hours prior to adding an activating antibody to fas (CH11, Upstate Biotechnology) at a typical concentration of 50-500 ng/ml. Typically 24-48 hours after fas ligation by CH11, cell survival was determined by measuring metabolic activity by the MTT method.
However, in the presence of fas, the cells pretreated with BCLI underwent a high degree of apoptosis (70% cell death). […] Thus, the drug is neither toxic nor capable of inducing apoptosis alone at this concentration.
Referring to FIG. 1, A human cell line derived from carotid artery atherosclerotic lesion was plated at known density and then subgroups of 3 wells were treated with various drugs prior to exposure to fas ligation by the activating CH11 antibody (+fas). Pretreatment with flavopiridol (Flavo, 50 nM) or BCLI (Bcl-inh, 20 μM or 100 μM) was followed 24 hours later by addition of CH11 activating antibody to fas (50 ng/ml). After fas ligation, cell survival was evaluated 24 hours later by measuring the number of viable cells using the metabolic dye MTT, which is converted to a blue dye that absorbs at 570 nm. Values reflect the mean±s.e.m. (n=3 per group).

[2] = test system: R1 cells over-expressing Bcl-Xl (R1 bclXL); experiment: MTT cell survival after fas ligation (CH11), R1 cells over-expressing Bcl-Xl; format: cell-based, human; conditions: AA 20 μg/ml; BCLI 20 μM; IFN 50 U/ml; SP 20 μM; CH11 50 ng/ml
Method: as §2
In one example, to determine whether the effect of BCLI and AA was via interaction with their intended targets (Bcl-Xl and Bcl-2), the drugs were tested in R1 cells over-expressing Bcl-Xl (R1 bclXL).
(§3) Referring to FIG. 2, human atherosclerosis-derived cells were pretreated with the specified drugs for 24 prior to treatment with the activating fas antibody CH11 (50 ng/ml). […] The drugs used were AA (20 μg/ml), BCLI (20 μM), interferon-gamma (IFN, 50 U/ml), and SP600125 (SP, 20 μM). The upper panel reports the MTT optical density (absorbance at 570 nm) without (control) or with fas ligation (+fas) as the mean, with error bars indicating±standard error of measurement (s.e.m., n=3 per group). The lower panel expresses % survival based on the MTT values above (MTT+fas/MTT Control)×100.

[3] = test system: R1GFP (human atherosclerosis-derived cell line with known resistance to fas ligation); experiment: MTT cell survival after fas ligation (CH11), GFP-only expressing cell line; format: cell-based; conditions: for effect on cell survival in the absence of fas (drug alone): AA3 20 μg/ml, no CH11
Method: as §1, §2
In addition to the BCL-inhibitor, this sensitizing effect was also observed with AA. As above, a human atherosclerosis-derived cell line with known resistance to fas ligation was used for study. In this case, the cell line was stably infected with a retrovirus expressing either an irrelevant marker gene (green fluorescent protein, GFP) or the marker gene and Bcl-Xl. In the GFP-only expressing cell line (R1GFP), fas ligation (50 ng/ml CH11) in low serum (1% FBS) led to only 15% cell death (85% survival) (see FIG. 2).
as §3

Human lesion cells = experiment: MTT assay for sensitivity to fas-induced apoptosis in human lesion cells; format: cell-based; conditions: for death with fas ligation (sensitivity to apoptosis): 24 h, 20% death without drug
Method: as §1, §2
FIG. 3 depicts the effect of 2-methoxy-antimycin A3 (AA3) and gossypol on the sensitivity to apoptosis in human lesion cells. Human lesion cells were plated and treated as above for 24 hours with the specified concentrations of drug. Fas ligation was initiated with 50 ng/ml of activating antibody CH11 and 24 hours later the number of cell surviving was measured by their metabolism of MTT. Bars are mean±s.d. (n=4 per group). A reduction in MTT levels indicates cell death.
FIG. 4 depicts the effect of HA14-1 and 2,3-DCPE on sensitivity to fas-induced apoptosis. Human lesion cells were plated and treated as above for 24 hours with the specified concentrations […] of HA14-1 (H) or 2,3-DCPE (D). Fas ligation was initiated with 50 ng/ml of activating antibody CH11 and 24 hours later the number of cell surviving was measured by their metabolism of MTT. Bars are mean±s.d. (n=2 per group). A reduction in MTT levels indicates cell death.

Molecule: 2,9-dimethoxy-11,12-dihydrodibenzo[c,g][1,2]-diazocine 5,6-dioxide (A) and 5,5′-Dimethoxy-2,2′-dinitrosobenzyl (B) [BCLI]
- effect upon cell survival in the absence of the activating antibody to fas ([1]; 20 μM, no CH11): little or no effect
- effect on cell survival in the absence of fas ligation ([1]; 100 μM, no CH11): substantial effect on cell survival
- cell death (apoptosis) in the presence of fas ([1]; BCLI pretreatment 20 μM, 24 h, CH11 50 ng/ml, MTT 24 h later): 70%
- effectiveness in Bcl-Xl over-expressing cells compared with GFP control cells [2]: markedly less effective
- effect on cell survival in the absence of fas (drug alone) ([3]; BCLI 20 μM): slightly more apoptosis alone

Molecule: CCCC[C@H]1C(=O)O[C@H](C)[C@H](NC(=O)c2cccc(NC=O)c2OC)C(=O)O[C@@H](C)[C@@H]1OC(=O)CC(C)C [AA3, 2-methoxyantimycin A3]
- death with fas ligation (sensitivity to apoptosis) (Human lesion cells; 10 μg/ml, CH11 50 ng/ml): 80%
- death with fas ligation (sensitivity to apoptosis) (Human lesion cells; 20 μg/ml, CH11 50 ng/ml): 80%
- death in the absence of fas ligation (Human lesion cells; AA3 at higher concentrations (above 20 μg/ml), no fas ligation): induced death even in the absence of fas ligation
- apoptosis in the presence of fas ([3]; 24 hour pretreatment 20 μg/ml, CH11 50 ng/ml, 1% FBS): 70%
- effect on cell survival in the absence of fas (drug alone) ([3]; BCLI 20 μM): only a small effect on cell survival

Molecule: Cl.OCCNCCCOc1cccc(Cl)c1Cl [DCPE, 2,[[3-(2,3-dichlorophenoxy)propyl]amino]ethanol-HCl]
- fas-dependent sensitization to apoptosis (Human lesion cells; only at the highest tested dose of 100 μM, CH11 50 ng/ml): significant fas-dependent sensitization to apoptosis

Molecule: Cc1cc2c(C(C)C)c(O)c(O)c(C=O)c2c(O)c1-c1c(C)cc2c(C(C)C)c(O)c(O)c(C=O)c2c1O [Gossypol, 2,2′-bis(8-Formyl-1,6,7-trihydroxy-5-isopropyl-3-methylnaphthalene)]
- survival in the presence of fas (Human lesion cells; 2.5 μM, CH11 50 ng/ml, 80% survival without drug): 50%

Molecule: CCOC(=O)C1=C(N)Oc2ccc(Br)cc2C1C(C#N)C(=O)OCC (centres unmarked) [HA14-1, Ethyl-2-amino-6-bromo-4-(1-cyano-2-ethoxy-2-oxoethyl)-4H-chromene-3-carboxylate]
- fas-independent death-inducing effect (Human lesion cells; 25-100 μM): fas-independent death-inducing effect
- ability to sensitize cells to fas-induced apoptosis (Human lesion cells; HA14-1, all tested concentrations, CH11 50 ng/ml): did not demonstrate any ability to sensitize cell to apoptosis

Molecule: Antimycin A [AA]
- effectiveness in Bcl-Xl over-expressing cells compared with GFP control cells [2]: markedly less effective

Molecule: interferon-gamma: interferon-gamma, a known sensitizing agent
- effectiveness in Bcl-Xl over-expressing cells compared with GFP control cells [2]: less effective
- sensitizing effect to fas ligation (in words) ([3]; BCLI 20 μM, interferon-gamma 50 U/ml, SP600125 20 μM, CH11 50 ng/ml): comparable effect
